Literature values, collected in patent US6340756B1, “Process for preparing a 2-(2-amino-1, 6-dihydro-6-oxo-purin-9-yl)methoxy-1,3-propanediol derivative” (Syntex (U.S.A.) Inc., priority 1996, dated 2002).

Columns and labels:
[1] = rats, urinary recovery of acyclovir, Beauchamp et al. 1992
[2] = EP 0 308 065 A2
[3] = EP 0 694 547 A
[4] = EP 0 694 547 A; remark: listed apart in the source

Row | Structure (SMILES) | amount of the parent drug (acyclovir) in the urine compared with acyclovir itself [1] | further results
1 | CC[C@H](C)[C@H](N)C(=O)OCCOCn1cnc2c(=O)[nH]c(N)nc21 [L-isoleucyl] | greater amounts of the parent drug in the urine than acyclovir itself | 
2 | CC(C)C(N)C(=O)OCCOCn1cnc2c(=O)[nH]c(N)nc21 (racemic) [D,L-valyl] | greater amounts of the parent drug in the urine than acyclovir itself | 
3 | CC(C)[C@H](N)C(=O)OCCOCn1cnc2c(=O)nc(N)[nH]c21 [valine ester of acyclovir] |  | absorption from the gut after oral administration, compared with other esters and acyclovir [2]: large increase in absorption
4 | C[C@H](N)C(=O)OCCOCn1cnc2c(=O)[nH]c(N)nc21 [L-alanyl] | greater amounts of the parent drug in the urine than acyclovir itself | 
5 | NCC(=O)OCCOCn1cnc2c(=O)[nH]c(N)nc21 [glycyl] | greater amounts of the parent drug in the urine than acyclovir itself | 
6 | CCC(C)C(N)C(=O)OCCOCn1cnc2c(=O)[nH]c(N)nc21 (racemic) [DL-isoleucyl] | greater amounts of the parent drug in the urine than acyclovir itself | 
7 | CSCC[C@H](N)C(=O)OCCOCn1cnc2c(=O)[nH]c(N)nc21 [L-methionyl] | greater amounts of the parent drug in the urine than acyclovir itself | 
8 | CC(C)[C@@H](N)C(=O)OCC(CO)OCn1cnc2c(O)nc(N)nc21 (stereo partly drawn) [2-(2-amino-1,6-dihydro-6-oxo-purin-9-yl)methoxy-3-hydroxy-1-propyl-L-valinate] |  | oral absorption [3]: improved oral absorption; toxicity [4]: low toxicity
9 | CC(C)[C@H](N)C(=O)OCCOCn1cnc2c(=O)nc(N)[nH]c21 [L-valyl] | greater amounts of the parent drug in the urine than acyclovir itself | rank as prodrug among the esters investigated ([1]; eighteen amino acid esters): best prodrug
10 | CC(N)C(=O)OCCOCn1cnc2c(=O)[nH]c(N)nc21 (racemic) [D,L-alanyl] | greater amounts of the parent drug in the urine than acyclovir itself | 
11 | Nc1nc2c(ncn2COCCOC(=O)C2CCCN2)c(=O)[nH]1 [L-prolyl] | greater amounts of the parent drug in the urine than acyclovir itself | 
12 | CC[C@H](N)C(=O)OCCOCn1cnc2c(=O)[nH]c(N)nc21 | greater amounts of the parent drug in the urine than acyclovir itself | 
